Measurements as given in publication PMC9995496, “A screen for MeCP2-TBL1 interaction inhibitors using a luminescence-based assay” (Scientific Reports, 2023).

Molecular target: T1, MeCP2-TBL1 interaction (MeCP2-SmBiT / TBL1-LgBiT) (Mus musculus, UniProt Q9QXE7)
T1 construct: expressed in transfected cells; crude lysate used as a cell-free assay
T1 sequence (Q9QXE7 166-527): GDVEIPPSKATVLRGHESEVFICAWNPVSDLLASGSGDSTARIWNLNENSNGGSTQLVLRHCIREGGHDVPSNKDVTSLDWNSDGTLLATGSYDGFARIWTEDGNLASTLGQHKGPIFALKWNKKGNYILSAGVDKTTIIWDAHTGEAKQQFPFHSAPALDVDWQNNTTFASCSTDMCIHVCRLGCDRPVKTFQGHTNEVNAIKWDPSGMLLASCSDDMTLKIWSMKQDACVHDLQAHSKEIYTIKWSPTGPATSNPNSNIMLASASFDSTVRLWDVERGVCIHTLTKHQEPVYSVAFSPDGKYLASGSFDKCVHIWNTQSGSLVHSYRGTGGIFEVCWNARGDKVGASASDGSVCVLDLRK
Assay: MeCP2-TBL1 NanoLuc luciferase complementation assay (cell-free, extracts of transfected HEK293 cells)
Format: binding, human
Description: To facilitate the discovery of inhibitors of the interaction between MeCP2 and TBL1/TBLR1, we set out to devise a simple and scalable biochemical assay for measuring the interaction between these two proteins. We initially explored the possibility of screening compound libraries using a previously established fluorescence polarization assay that depends on purified recombinant TBL1/TBLR1[26]. […] The resulting luminescence signal depends on the affinity between the two interacting proteins of interest (Fig. 1A). This method was originally developed to allow for the interrogation of protein–protein interactions in vivo. However, in order to facilitate large scale screening of chemical libraries, we adapted the assay for use as a cell-free system.
We fused the large N-terminal fragment of NanoLuc (LgBiT) to the C-terminus of the WD repeat domains of both TBL1 and TBLR1, and the small C-terminal fragment of NanoLuc (SmBiT) to the C-terminus of the C-terminal half of MeCP2 (Fig. 1B and C). This region of MeCP2 contains the NID (NCoR interaction domain)—the motif in MeCP2 that binds to TBL1/TBLR1.
The AgeI-NotI restriction fragment (encoding EGFP) was then replaced with a codon optimized SmBiT sequence to yield the MeCP2-SmBiT expression plasmid. The TBL1-LgBiT expression vector was derived from a TBL1-mCherry plasmid[25] by replacing the AgeI-NotI restriction fragment (encoding mCherry) with a codon optimized LgBiT sequence. SmBiT-PRKACA and LgBiT-PRKAR2A plasmids are commercially available (Promega, N203 and N204).
Cells were harvested after 24 h and cell pellets were stored at − 80 °C.
In the screens described here, the lysate obtained from a single 15 cm plate was used for 2.5 384-well assay plates. NanoLuc substrate (furimazine) (Promega, N1110) was diluted 1000-fold in passive lysis buffer (Promega, E1941) and added 1:1 to the lysate. Screening libraries were purchased from Asinex[40] and ApexBio (FDA-approved Drug Library, L1021). Compounds were dispensed using an Echo acoustic dispenser and tested at a final concentration of 20 µM in a total assay volume of 20 μl in 384-well plate format. DMSO was added to each well at a final concentration of 0.2% (v/v) and wells containing only DMSO were used as negative control. After 30 min incubation at room temperature, luminescence was measured on a Tecan M1000 multi-mode plate reader. Raw luminescence reads from each well on each plate were normalized to the median luminescence signal for that plate. In the ApexBio screen, the scaled and normalized PKA signal for each compound was subtracted from the MeCP2-TBL1 signal for the same compound. After plate normalization the robust SSMD (SSMD*) was calculated as described elsewhere. A threshold of SSMD* ≥ 3 was applied for discerning primary hits.
Assays were performed as described above except instead of a single concentration, a threefold serial dilution ranging from 60 to 0.03 μM was tested in triplicate for each of the compounds. Half-maximal inhibitory concentrations were calculated using global nonlinear regression by fitting the response data sets of all compounds simultaneously with a four-parameter logistic curve of log inhibitor concentration versus normalized luminescence using GraphPad Prism. During fitting, the maximum and minimum curve values were shared between the data sets.

[1] = primary screen of the Asinex library, sheet "Sargen output Asinex library", one well per compound
[2] = primary screen of the Asinex library, sheet "Sargen output Asinex library", one well per compound, Batch Ref. 1
[3] = primary screen of Asinex library, single well per compound

| Structure (SMILES) | Inhibition percent [1] [%] | Inhibition percent [2] [%] | also measured |
| --- | --- | --- | --- |
| CC(=O)N1CCc2nc(C3CCN(C)CC3)nc(NCCCN(C)c3ccccc3)c2C1 [BDE_25368265] | -2.49 | – | – |
| COCCc1ncc(CN2CCCC2c2cc(Cc3cccc(OC)c3)cc(C)n2)cn1 (stereo not drawn) [BDE_25403133] | – | -4.16 | – |
| O=C(Cc1c[nH]c2ccccc12)N1CCC2(CC=CCN(Cc3ccc(F)cc3)C2=O)CC1 [BDE_25848651] | -0.14 | – | – |
| COCCN1CC=CCC2(CCN(CC(=O)N(Cc3ccccc3)C(C)C)CC2)C1=O [BDE_25851451] | -2.37 | – | – |
| Cc1cc(CCCC(=O)N2CCCC2c2cccc(Nc3nncs3)n2)ccc1F (stereo not drawn) [BDE_26594959] | – | 1.13 | – |
| CNc1nc(C2CCCNC2)nc2c1CCN(C(=O)C1(Oc3ccccc3)CCCCC1)C2 (stereo not drawn) [BDE_26713143] | – | – | Inhibition percent [3]: -1.93 |
| CN(C)c1ncc(-c2cccc(F)c2)c(C2CCCCN2C(=O)COc2ccccc2)n1 (stereo not drawn) [BDE_26725534] | – | 34.22 | – |
| COc1cccc(CC(=O)N2CCC(c3nc(N(C)C)ncc3-c3ccccc3F)CC2)c1 [BDE_26728718] | – | 20.50 | – |
| O=C(CCCNc1ncccn1)N1CCCC1c1cncc(Cc2cccc(Cl)c2)n1 (stereo not drawn) [BDE_27217604] | -3.79 | – | – |
| Cc1nc(C2CCN(C(=O)c3cccnc3)CC2)nc2c1CCCN2CCc1ccccc1 [BDE_27576245] | – | -0.64 | – |
| Cc1cc(C2CCCN(Cc3ccc(-c4ccccc4C(=O)O)o3)C2)ccn1 (stereo not drawn) [BDE_30686588] | 6.28 | – | – |
| Cc1nccc(C2CCCN2Cc2ccc(-c3ccccc3C(=O)O)cc2)n1 (stereo not drawn) [BDE_30687639] | -0.80 | – | – |
| CNc1cccc(C2CCCN2Cc2ccc(-c3ccccc3C(=O)O)cc2)n1 (stereo not drawn) [BDE_30687673] | -2.37 | – | – |
| O=C(Cn1ncc2ccccc2c1=O)N1CCCCC1c1ncc(Cc2ccccc2F)o1 (stereo not drawn) [BDE_33507923] | – | 3.33 | – |
| COc1cccc(Cc2cnc(C3CCCN(C(=O)Cn4ncc5ccccc5c4=O)C3)o2)c1 (stereo not drawn) [BDE_33507930] | – | -1.97 | – |
| O=C(Cn1ncc2ccccc2c1=O)N1CCCC(c2ncc(Cc3ccc(Cl)cc3)o2)C1 (stereo not drawn) [BDE_33507934] | – | 0.79 | – |
| COc1ccccc1Cc1cnc(C2CCCN(S(=O)(=O)c3cn(C)nc3C)C2)o1 (stereo not drawn) [BDE_33511387] | – | 4.61 | – |
| COc1ccccc1Cc1cnc(C2CCCN(C(=O)c3ccc(Cc4ccccc4)nc3)C2)o1 (stereo not drawn) [BDE_33511644] | – | 3.75 | – |
| O=C(c1cc(-c2ccccc2F)n[nH]1)N1CCCCC1c1ncc(Cc2ccccc2)o1 (stereo not drawn) [BDE_33513466] | – | 6.68 | – |

| Structure (SMILES) | Inhibition percent [1] [%] | Inhibition percent [2] [%] | also measured |
| --- | --- | --- | --- |
| O=C(COc1ncnc2ccccc12)N1CCCCC1c1ncc(Cc2ccc(F)cc2)o1 (stereo not drawn) [BDE_33513539] | – | -1.92 | – |
| COc1cccc(Cc2cnc(C3CCCCN3C(=O)COc3ncnc4ccccc34)o2)c1 (stereo not drawn) [BDE_33513545] | 0.39 | – | – |
| COc1cccc(-c2cc(C(=O)N3CCCCC3c3ncc(Cc4ccccc4OC)o3)[nH]n2)c1 (stereo not drawn) [BDE_33513613] | – | 18.16 | – |
| O=C(NCC(=O)N1CCCCC1c1ncc(Cc2ccc(Cl)cc2)o1)c1cncc(O)c1 (stereo not drawn) [BDE_33513655] | – | -11.18 | – |
| COc1ccc(OC)c(-c2cc(C(=O)N3CCCCC3c3ncc(Cc4ccccc4)o3)[nH]n2)c1 (stereo not drawn) [BDE_33513704] | – | 18.69 | – |
| COc1cccc(-c2cc(C(=O)N3CCCCC3c3ncc(Cc4ccccc4)o3)on2)c1 (stereo not drawn) [BDE_33514162] | 7.15 | – | – |
| O=C(c1cccc(-c2cncnc2)n1)N1CCCCC1c1ncc(Cc2cccc(F)c2)o1 (stereo not drawn) [BDE_33514471] | – | -1.40 | – |
| COc1cccc(Cc2cnc(C3CCCCN3C(=O)Cc3ccccc3OC)o2)c1 (stereo not drawn) [BDE_33514656] | 2.98 | – | – |
| COc1cccc(Cc2cnc(C3CCCCN3C(=O)c3cccnc3-c3cncs3)o2)c1 (stereo not drawn) [BDE_33514740] | – | 1.71 | – |
| CNc1nc(C2CCCCN2C(=O)CCCN(C)c2ccccc2)nc2c1CCN(C(C)=O)C2 (stereo not drawn) [BDE_33628015] | – | -2.14 | – |
| COCc1nc2ccccc2n1CC(=O)N1CCCCC1C1CCN(C(=O)c2cnc(C)cn2)CC1 (stereo not drawn) [BDE_33628056] | -2.31 | – | – |
| Cn1c(COCC(=O)N2CCCCC2c2cc(C(=O)NC3CCCC3)[nH]n2)nc2ccccc21 (stereo not drawn) [BDE_33628409] | -3.22 | – | – |
| Cc1ccc2ncnc(NCCC(=O)N3CCCCC3c3cc(C(=O)NC4CCCC4)[nH]n3)c2c1 (stereo not drawn) [BDE_33629308] | 0.99 | – | – |
| O=C(c1ccc(CN2CCOCC2)cc1)N1CCCC1c1ccnc(-c2cccc(Cl)c2)n1 (stereo not drawn) [BDE_33630026] | – | 0.26 | – |
| Cc1ccc2nc(COCC(=O)N3CCCC3c3ccnc(-c4cccc(Cl)c4)n3)[nH]c2c1 (stereo not drawn) [BDE_33630067] | 1.05 | – | – |
| CC(C)(C)c1ccc2c(c1)N(CC(=O)N1CCCCC1CCNC(=O)c1ccccc1)C(=O)CO2 (stereo not drawn) [BDE_33630290] | – | – | Inhibition percent [3]: -2.18 |
| CN(C)c1ncc(-c2cccc(C(N)=O)c2)c(C2CCCCN2CC(=O)NCc2ccccn2)n1 (stereo not drawn) [BDE_33632669] | – | – | Inhibition percent [3]: -2.55 |
| CCCN1CCN(C(=O)c2c[nH]cn2)CC(Cc2ccccc2-c2ccccc2OC)C1=O (stereo not drawn) [BDE_33754981] | – | 0.35 | – |
| O=C(OCc1ccccc1)N1C[C@@H](O)[C@H](N(Cc2ccccc2)Cc2ccc(F)c(F)c2)C1 [BDE_33958860] | – | – | Inhibition percent [3]: 12.36 |

Further lines, with some results ahead:

| Inhibition percent [1] [%] | Inhibition percent [2] [%] | Structure (SMILES) | also measured |
| --- | --- | --- | --- |
| – | 3.10 | COc1ccc(Cc2ccc(C3CCCN3C(=O)CCn3ncc4ccccc43)nc2)cc1 (stereo not drawn) [BDE_25650039] | – |
| – | -0.81 | Nc1nc(-c2ccccc2)nc2nc(C3CCCN(C(=O)COc4ccccc4)C3)ccc12 (stereo not drawn) [BDE_26160293] | – |
| -1.75 | – | Cc1nc(C2CCCN2C(=O)c2ccncc2)nc2c1CCC(=O)N2CCc1ccccc1 (stereo not drawn) [BDE_26909882] | – |
| -1.96 | – | O=C(c1ccccn1)N1CCCC1c1cc(CCOc2cccc(C(F)(F)F)c2)[nH]n1 (stereo not drawn) [BDE_27113075] | – |
| -2.00 | – | CN(CCC(=O)N1CCCC1c1cncc(Cc2cccc(Cl)c2)n1)Cc1cccnc1 (stereo not drawn) [BDE_27213557] | – |
| – | -1.68 | Cc1nc2c(c(Nc3ccccn3)n1)CCN(C(=O)C1CCCCN1C(=O)OC(C)(C)C)C2 (stereo not drawn) [BDE_27755327] | – |
| – | -2.12 | O=C(O)c1ccccc1-c1ccc(CN2CCCC2c2ccncn2)cc1 (stereo not drawn) [BDE_30687637] | – |
| – | 6.24 | COc1ccccc1Cc1cnc(C2CCCN(C(=O)c3cc(-c4ccc(F)cc4)no3)C2)o1 (stereo not drawn) [BDE_33509516] | – |
| -2.52 | – | O=C(O)c1ccccc1CN1CCCC(c2ncc(Cc3ccc(Cl)cc3)o2)C1 (stereo not drawn) [BDE_33511194] | – |
| – | 1.49 | COc1ccccc1Cc1cnc(C2CCCCN2C(=O)Cn2ncc3ccccc3c2=O)o1 (stereo not drawn) [BDE_33513118] | – |
| – | 4.13 | O=C(COc1ncnc2ccccc12)N1CCCCC1c1ncc(Cc2cccc(Cl)c2)o1 (stereo not drawn) [BDE_33513542] | – |
| 5.46 | – | COc1ccccc1CC(=O)N1CCCCC1c1ncc(Cc2ccccc2OC)o1 (stereo not drawn) [BDE_33514655] | – |
| -1.16 | – | Cc1cc(Oc2ccc(C(N)=O)cc2)nc(C2CCCCN2C(=O)CCCN2CCCCCC2)n1 (stereo not drawn) [BDE_33629625] | – |
| – | -3.25 | O=C(CN1CCC(C2CCCCN2C(=O)C2CCN(Cc3ccccn3)CC2)CC1)N1CCCC1 (stereo not drawn) [BDE_33629903] | – |
| -2.91 | – | O=C(NC1CCCC1)c1cc(C2CCCCN2C(=O)C2CCN(Cc3ccncc3)CC2)n[nH]1 (stereo not drawn) [BDE_33629993] | – |
| – | 4.13 | O=C(CCCC(=O)N1CCCCC1c1n[nH]cc1-c1ccc(C(F)(F)F)cc1)Nc1ccccn1 (stereo not drawn) [BDE_33631892] | – |
